Data taken from patent publication US20230183207A1 (priority 2020, published 2023).

Columns and labels:
SARS-CoV-2 = format: cell-based
[1] = test system: Vero-E6 and TMPRSS2-over-expressing Vero-E6 cells

| SMILES | block of cytopathic effect of SARS-CoV-2 (FIG. 2) (SARS-CoV-2) | toxicity [1] |
| --- | --- | --- |
| C=CCn1ccc2c(C(=O)Oc3cncc(Cl)c3)cccc21 [GRL-0820S] | significantly block the cytopathic effect | – |
| O=C(Oc1cncc(Cl)c1)c1cccc2[nH]ccc12 [GRL-0920S] | significantly block the cytopathic effect | without significant toxicity |
